In US20130225591A1, “IMIDOTHIAZOLE KINASE INHIBITORS” (priority 2009, published 2013):

What follows are compounds tested against T1, CDK5-p25 kinase (Homo sapiens, UniProt Q00535) (assay: CDK5-p25 kinase enzymatic assay). Details: 50 nM-99 nM; 5 uM ATP, 0.3 nM CDK5-p25; read-out: IC50 potency, CDK5-p25 kinase enzymatic assay, 50 nM-99 nM.
T1 construct: purchased Invitrogen PV4677
T1 sequence (Q00535 whole entry): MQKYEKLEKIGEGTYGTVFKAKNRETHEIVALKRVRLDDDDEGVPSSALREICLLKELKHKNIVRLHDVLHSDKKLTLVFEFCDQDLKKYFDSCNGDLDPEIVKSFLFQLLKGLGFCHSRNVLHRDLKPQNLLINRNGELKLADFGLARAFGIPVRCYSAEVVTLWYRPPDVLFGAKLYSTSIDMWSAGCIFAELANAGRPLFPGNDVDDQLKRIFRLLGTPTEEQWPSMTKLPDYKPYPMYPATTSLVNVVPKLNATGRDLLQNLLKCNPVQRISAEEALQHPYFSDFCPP
T1 sequence (Q15078 99-307 partner limits assumed): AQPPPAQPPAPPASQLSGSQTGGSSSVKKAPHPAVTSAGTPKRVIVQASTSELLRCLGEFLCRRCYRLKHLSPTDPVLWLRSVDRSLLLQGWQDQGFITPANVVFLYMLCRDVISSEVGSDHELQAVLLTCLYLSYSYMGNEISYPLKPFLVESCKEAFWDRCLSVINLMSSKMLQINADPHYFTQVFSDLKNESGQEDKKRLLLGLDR
Assay type: biochemical
Method: CDK5-p25 kinase (Invitrogen PV4677) enzymatic activity was measured using electrophoretic separation and fluorescent detection to monitor phosphorylation of a fluorescently labeled histone H1-derived peptide substrate, FL29 (5-FAM-GGGPATPKKAKKL-CONH2, Caliper #760429)
First, 0.25 uL of serially diluted compound in DMSO at 100× concentration was transferred into each well of a 384-well polystyrene assay plate. To this was added 15 uL of a 1.67× enzyme solution (500 pM enzyme, 1 mM DTT (Sigma D9779), 1× reconstitution buffer with protease inhibitor (Caliper #700329 proprietary formulation)), followed by centrifugation for 1 min at 1000 rpm, and incubation for 5-15 min at room temperature to allow binding of compound to enzyme. To initiate the reaction, 10 uL of substrate/ATP mix (245 mM Hepes pH 7.5, 0.003% Brij 35, 0.004% Tween, 12.75 uM ATP, 3.75 uM FL29 peptide) were added to each well, followed by centrifugation at 1000 rpm for 1 min. The reaction was then incubated at room temperature for 30 min. Final assay conditions were: 0.3 nM CDK5-p25, 1.5 uM peptide, 5 uM ATP, 0.6 mM DTT, 1% DMSO, 98 mM HEPES pH 7.5.
After incubation, reactions were quenched by the addition of 45 uL Caliper termination solution (Caliper proprietary formula), followed by centrifugation at 1000 rpm for 1 min. Extent of reaction (percentage conversion of substrate to phosphorylated product) was then measured using the Caliper EZ II reader. Dose-response curves were created by plotting the inhibition of enzyme activity (normalized relative to vehicle treated and no ATP control reactions) as a function of the log of compound concentration. The curve was analyzed using a four parameter logistical fit to calculate IC50 values.
With `O=C(Cc1ccc(CO)cc1)Nc1ncn2c(C(F)(F)F)csc12` [Example 71, 2-[4-(hydroxymethyl)phenyl]-N-[3-(trifluoromethyl)imidazo[5,1-b][1,3]thiazol-7-yl]acetamide] the IC50 was 50 to 99 nM. `O=C(Cc1ccc(C(=O)N2CCCC2)cc1)Nc1ncn2c(C(F)(F)F)csc12` [Example 74, 2-[4-(pyrrolidin-1-ylcarbonyl)phenyl]-N-[3-(trifluoromethyl)imidazo[5,1-b][1,3]thiazol-7-yl]acetamide] was tested, and the IC50 was 50 to 99 nM.

Same assay, conditions: 500 nM-3 μM; 5 uM ATP, 0.3 nM CDK5-p25; read-out: IC50 potency, CDK5-p25 kinase enzymatic assay, 500 nM-3 μM
For `O=C(Cc1ccc2ccccc2c1)Nc1ncn2ccsc12` [Example 82, N-imidazo[5,1-b][1,3]thiazol-7-yl-2-(2-naphthyl)acetamide], the IC50 was 500 to 3000 nM. `N#Cc1csc2c(NC(=O)Cc3ccc4ccccc4c3)ncn12` [Example 84, N-(3-cyanoimidazo[5,1-b][1,3]thiazol-7-yl)-2-(naphthalen-2-yl)acetamide] gave an IC50 of 500 to 3000 nM.

Same assay, conditions: 5 uM ATP, 0.3 nM CDK5-p25; read-out: IC50 potency, CDK5-p25 kinase enzymatic assay, 100 nM-499 nM
`O=C(Cc1ccnnc1)Nc1ncn2c(C(F)(F)F)csc12` [Example 72, 2-pyridazin-4-yl-N-[3-(trifluoromethyl)imidazo[5,1-b][1,3]thiazol-7-yl]acetamide] showed an IC50 of 100 to 499 nM. In the case of `NCc1cccc(CC(=O)Nc2ncn3c(C(F)(F)F)csc23)c1` [Example 75, 2-[3-(aminomethyl)phenyl]-N-[3-(trifluoromethyl)imidazo[5,1-b][1,3]thiazol-7-yl]acetamide], the IC50 is reported as 100 to 499 nM.

Same assay, conditions: '<50 nM'; 5 uM ATP, 0.3 nM CDK5-p25; read-out: IC50 potency, CDK5-p25 kinase enzymatic assay, <50 nM
For `Cc1nc2cc(CC(=O)Nc3ncn4c(C(F)(F)F)csc34)ccc2o1` [Example 69, 2-(2-methyl-1,3-benzoxazol-5-yl)-N-[3-(trifluoromethyl)imidazo[5,1-b][1,3]thiazol-7-yl]acetamide], the IC50 was under 50 nM. `O=C(Cc1ccc(-c2nnco2)cc1)Nc1ncn2c(C(F)(F)F)csc12` [Example 70, 2-[4-(1,3,4-oxadiazol-2-yl)phenyl]-N-[3-(trifluoromethyl)imidazo[5,1-b][1,3]thiazol-7-yl]acetamide] showed an IC50 of under 50 nM. `O=C(Cc1ccc2[nH]cnc2c1)Nc1ncn2c(C(F)(F)F)csc12` [Example 73, 2-(1H-benzimidazol-5-yl)-N-[3-(trifluoromethyl)imidazo[5,1-b][1,3]thiazol-7-yl]acetamide] gave an IC50 of under 50 nM. `O=C(Cc1ccc(NC(=O)c2ccccc2)cc1)Nc1ncn2c(C(F)(F)F)csc12` [Example 79, N-[4-(2-oxo-2-{[3-(trifluoromethyl)imidazo[5,1-b][1,3]thiazol-7-yl)amino}ethyl)phenyl] benzamide] gave an IC50 of under 50 nM. `O=C(Cc1cccc(-c2nn[nH]n2)c1)Nc1ncn2c(C(F)(F)F)csc12` [Example 80, 2-[3-(2H-tetrazol-5-yl)phenyl]-N-[3-(trifluoromethyl)imidazo[5,1-b][1,3]thiazol-7-yl]acetamide] gave an IC50 of under 50 nM. In the case of `O=C(Cc1ccc(-c2nn[nH]n2)cc1)Nc1ncn2c(C(F)(F)F)csc12` [Example 81, 2-[4-(2H-tetrazol-5-yl)phenyl]-N-[3-(trifluoromethyl)imidazo[5,1-b][1,3]thiazol-7-yl]acetamide], the IC50 is reported as under 50 nM. `O=C(Cc1ccc2ccccc2c1)Nc1ncn2ccsc12` [Example 82, N-imidazo[5,1-b][1,3]thiazol-7-yl-2-(2-naphthyl)acetamide] gave an IC50 of under 50 nM. With `O=C(Cc1ccc2ccccc2c1)Nc1ncn2c(Br)csc12` [Example 83, N-(3-Bromoimidazo[5,1-b][1,3]thiazol-7-yl)-2-(naphthalen-2-yl)acetamide] the IC50 was under 50 nM. For `O=C(Cc1ccc2ccccc2c1)Nc1ncn2c(C(F)(F)F)c(C(=O)O)sc12` [Example 85, 7-[(Naphthalen-2-ylacetyl)amino]-3-(trifluoromethyl)imidazo[5,1-b][1,3]thiazole-2-carboxylic Acid], the IC50 was under 50 nM. Compound `NC(=O)c1sc2c(NC(=O)Cc3ccc4ccccc4c3)ncn2c1C(F)(F)F` [Example 86, 7-[(Naphthalen-2-ylacetyl)amino]-3-(trifluoromethyl)imidazo[5,1-b][1,3]thiazole-2-carboxyamide] has an IC50 of under 50 nM.
